# Source: the OligoGym collection
# Values joined by “and” are separate entries in the source; they are usually repeats but may differ in a detail not shown here. Equal entries are not always repeated. HELM strings list units from the 5' end as sugar, base in round brackets, then linkage (d deoxyribose, r ribose, m 2'-O-methyl, p phosphodiester). Strings are as the collection lists them, not checked against the first reports. ss, as = sense and antisense strand; [lna] = locked nucleic acid (LNA); [s4r] = 4'-thioribose; [fl2r] = 2'-fluoro
# Conditions: siRNA
# Also: test system not given here.
row,Substance,target mRNA knockdown
1,RNA1{[s4r](C)p.[s4r](G)p.r(U)p.r(A)p.r(C)p.r(G)p.r(C)p.r(G)p.r(G)p.r(A)p.r(A)p.r(U)p.r(A)p.r(C)p.r(U)p.r(U)p.r(C)p.[s4r](G)p.[s4r](A)p.r(T)p.r(T)}|RNA2{r(U)p.r(C)p.r(G)p.r(A)p.r(A)p.r(G)p.r(U)p.r(A)p.r(U)p.r(U)p.r(C)p.r(C)p.r(G)p.r(C)p.r(G)p.r(U)p.r(A)p.r(C)p.r(G)p.r(T)p.r(T)}$$$RNA1{StrandType:ss}|RNA2{StrandType:as}$,95.3%
2,RNA1{r(C)p.r(C)p.r(U)p.r(C)p.r(C)p.r(C)p.r(C)p.r(A)p.r(U)p.r(C)p.r(C)p.r(C)p.r(C)p.r(U)p.r(U)p.r(U)p.r(U)p.r(A)p.r(A)p.r(T)p.r(T)}|RNA2{r(U)p.r(U)p.m(A)p.r(A)p.r(A)p.r(A)p.r(G)p.r(G)p.r(G)p.r(G)p.r(A)p.r(U)p.r(G)p.r(G)p.r(G)p.r(G)p.r(A)p.r(G)p.r(G)p.r(T)p.r(T)}$$$RNA1{StrandType:ss}|RNA2{StrandType:as}$,80%
3,RNA1{r(C)p.r(U)p.r(U)p.r(A)p.r(C)p.r(G)p.r(C)p.r(U)p.r(G)p.r(A)p.r(G)p.r(U)p.r(A)p.r(C)p.r(U)p.r(U)p.r(C)p.r(G)p.r(A)p.r(T)p.r(T)}|RNA2{r(U)p.r(C)p.r(G)p.r(A)p.r(A)p.r(G)p.r(U)p.[lna](A)p.r(C)p.r(U)p.r(C)p.r(A)p.r(G)p.r(C)p.r(G)p.r(U)p.r(A)p.r(A)p.r(G)p.r(T)p.r(T)}$$$RNA1{StrandType:ss}|RNA2{StrandType:as}$,86%
4,RNA1{r(G)p.r(A)p.r(A)p.r(C)p.r(U)p.r(C)p.r(U)p.r(U)p.r(A)p.r(G)p.r(C)p.r(G)p.r(U)p.r(A)p.r(U)p.r(G)p.r(C)p.r(A)p.r(A)p.d(T)p.d(T)}|RNA2{r(U)p.r(U)p.r(G)p.r(C)p.r(A)p.r(U)p.r(A)p.r(C)p.r(G)p.r(C)p.r(U)p.r(A)p.r(A)p.r(G)p.r(A)p.r(G)p.r(U)p.r(U)p.r(C)p.d(T)p.d(T)}$$$RNA1{StrandType:ss}|RNA2{StrandType:as}$,56%
5,RNA1{r(G)p.r(A)p.r(C)p.r(G)p.r(U)p.r(A)p.r(A)p.r(A)p.r(C)p.r(G)p.r(G)p.r(C)p.r(C)p.r(A)p.r(C)p.r(A)p.r(A)p.r(G)p.r(U)p.r(U)p.r(C)}|RNA2{r(A)p.m(C)p.r(U)p.r(U)p.r(G)p.r(U)p.r(G)p.r(G)p.r(C)p.r(C)p.r(G)p.r(U)p.r(U)p.r(U)p.r(A)p.r(C)p.r(G)p.r(U)p.r(C)p.r(G)p.r(C)}$$$RNA1{StrandType:ss}|RNA2{StrandType:as}$,76%
6,RNA1{m(C)p.r(U)p.m(C)p.r(A)p.m(A)p.r(A)p.m(U)p.r(C)p.m(A)p.r(A)p.m(G)p.r(G)p.m(C)p.r(C)p.m(G)p.r(G)p.m(A)p.r(G)p.m(U)p.r(T)p.r(T)}|RNA2{r(A)p.r(C)p.r(U)p.r(C)p.r(C)p.m(G)p.m(G)p.r(C)p.r(C)p.r(U)p.r(U)p.m(G)p.r(A)p.r(U)p.r(U)p.r(U)p.m(G)p.r(A)p.m(G)p.r(T)p.r(T)}$$$RNA1{StrandType:ss}|RNA2{StrandType:as}$,36%
7,RNA1{r(A)p.r(A)p.r(G)p.r(U)p.[fl2r](A)p.r(G)p.r(U)p.r(C)p.r(C)p.r(C)p.r(C)p.r(C)p.r(U)p.r(U)p.r(G)p.r(A)p.r(A)p.r(G)p.r(A)p.r(T)p.r(T)}|RNA2{r(U)p.r(C)p.r(U)p.r(U)p.r(C)p.r(A)p.r(A)p.r(G)p.r(G)p.r(G)p.r(G)p.r(G)p.r(A)p.r(C)p.[fl2r](U)p.r(A)p.r(C)p.r(U)p.r(U)p.r(T)p.r(T)}$$$RNA1{StrandType:ss}|RNA2{StrandType:as}$,69%
8,RNA1{m(G)p.m(C)p.m(A)p.m(G)p.m(C)p.m(A)p.m(C)p.m(G)p.m(A)p.m(C)p.m(U)p.m(U)p.m(C)p.m(U)p.m(U)p.m(C)p.m(A)p.m(A)p.m(G)p.r(T)p.r(T)}|RNA2{m(C)p.m(U)p.m(U)p.m(G)p.m(A)p.m(A)p.m(G)p.m(A)p.m(A)p.m(G)p.m(U)p.m(C)p.m(G)p.m(U)p.m(G)p.m(C)p.m(U)p.m(G)p.m(C)p.r(T)p.r(T)}$$$RNA1{StrandType:ss}|RNA2{StrandType:as}$,0%
9,RNA1{m(A)p.r(G)p.r(C)p.r(U)p.r(C)p.r(U)p.r(U)p.r(U)p.r(G)p.r(U)p.r(C)p.m(A)p.r(C)p.r(C)p.r(U)p.r(C)p.r(U)p.r(C)p.r(U)p.r(T)p.r(T)}|RNA2{m(A)p.r(G)p.m(A)p.r(G)p.m(A)p.r(G)p.m(G)p.r(U)p.m(G)p.r(A)p.m(C)p.r(A)p.m(A)p.r(A)p.m(G)p.r(A)p.m(G)p.r(C)p.m(U)p.r(T)p.r(T)}$$$RNA1{StrandType:ss}|RNA2{StrandType:as}$,19%
10,RNA1{r(C)p.r(U)p.r(U)p.r(A)p.r(C)p.r(G)p.r(C)p.r(U)p.r(G)p.r(A)p.r(G)p.r(U)p.r(A)p.r(C)p.r(U)p.r(U)p.r(C)p.r(G)p.r(A)p.r(T)p.r(T)}|RNA2{r(U)p.r(C)p.r(G)p.r(A)p.r(A)p.r(G)p.r(U)p.r(A)p.r(C)p.r(U)p.r(C)p.r(A)p.r(G)p.r(C)p.r(G)p.r(U)p.r(A)p.r(A)p.r(G)p.[lna](T)p.[lna](T)}$$$RNA1{StrandType:ss}|RNA2{StrandType:as}$,93%
11,RNA1{m(U)p.r(A)p.r(A)p.r(A)p.r(C)p.r(U)p.r(U)p.r(U)p.r(G)p.r(G)p.r(G)p.r(G)p.r(A)p.r(A)p.r(G)p.r(G)p.r(G)p.r(A)p.r(G)p.r(T)p.r(T)}|RNA2{r(C)p.r(U)p.r(C)p.m(C)p.r(C)p.r(U)p.r(U)p.r(C)p.r(C)p.r(C)p.r(C)p.r(A)p.r(A)p.r(A)p.r(G)p.r(U)p.r(U)p.r(U)p.r(A)p.r(T)p.r(T)}$$$RNA1{StrandType:ss}|RNA2{StrandType:as}$,72%
12,RNA1{r(A)p.r(U)p.r(C)p.r(A)p.r(C)p.r(A)p.r(A)p.r(A)p.r(C)p.r(C)p.r(C)p.r(C)p.m(U)p.r(A)p.r(G)p.r(A)p.r(G)p.r(G)p.r(G)p.r(T)p.r(T)}|RNA2{r(C)p.r(C)p.r(C)p.r(U)p.r(C)p.m(U)p.r(A)p.r(G)p.r(G)p.r(G)p.r(G)p.r(U)p.r(U)p.r(U)p.r(G)p.r(U)p.r(G)p.r(A)p.r(U)p.r(T)p.r(T)}$$$RNA1{StrandType:ss}|RNA2{StrandType:as}$,29%
13,RNA1{[fl2r](U)p.r(C)p.[fl2r](C)p.r(A)p.[fl2r](A)p.r(G)p.[fl2r](C)p.r(U)p.[fl2r](U)p.r(C)p.[fl2r](C)p.r(U)p.[fl2r](C)p.r(G)p.[fl2r](U)p.r(U)p.[fl2r](G)p.r(G)p.[fl2r](U)p.r(T)p.r(T)}|RNA2{r(A)p.r(C)p.r(C)p.r(A)p.r(A)p.r(C)p.r(G)p.r(A)p.r(G)p.r(G)p.r(A)p.r(A)p.r(G)p.r(C)p.[fl2r](U)p.[fl2r](U)p.r(G)p.r(G)p.r(A)p.r(T)p.r(T)}$$$RNA1{StrandType:ss}|RNA2{StrandType:as}$,51%
14,RNA1{[s4r](A)p.[s4r](A)p.[s4r](A)p.[s4r](C)p.r(A)p.r(U)p.r(G)p.r(C)p.r(A)p.r(G)p.r(A)p.r(A)p.r(A)p.r(A)p.r(U)p.[s4r](G)p.[s4r](C)p.[s4r](U)p.[s4r](G)p.r(T)p.r(T)}|RNA2{r(C)p.r(A)p.r(G)p.r(C)p.r(A)p.r(U)p.r(U)p.r(U)p.r(U)p.r(C)p.r(U)p.r(G)p.r(C)p.r(A)p.r(U)p.[s4r](G)p.[s4r](U)p.[s4r](U)p.[s4r](U)p.r(T)p.r(T)}$$$RNA1{StrandType:ss}|RNA2{StrandType:as}$,91%
15,RNA1{m(G)p.r(G)p.m(C)p.r(C)p.m(U)p.r(U)p.m(U)p.r(C)p.m(U)p.r(C)p.m(U)p.r(C)p.m(U)p.r(A)p.m(G)p.r(A)p.m(U)p.r(A)p.m(U)p.r(T)p.r(T)}|RNA2{r(A)p.r(U)p.r(A)p.r(U)p.r(C)p.r(U)p.r(A)p.r(G)p.r(A)p.r(G)p.r(A)p.r(G)p.r(A)p.r(A)p.r(A)p.m(G)p.r(G)p.r(C)p.r(C)p.r(T)p.r(T)}$$$RNA1{StrandType:ss}|RNA2{StrandType:as}$,80%
16,RNA1{[lna](T)p.r(C)p.r(C)p.r(A)p.r(G)p.r(A)p.r(A)p.r(C)p.r(A)p.r(A)p.r(A)p.r(G)p.r(G)p.r(A)p.r(A)p.r(A)p.r(C)p.r(G)p.r(G)p.[lna](T)p.[lna](T)}|RNA2{r(C)p.r(C)p.r(G)p.r(U)p.r(U)p.r(U)p.r(C)p.r(C)p.r(U)p.r(U)p.r(U)p.r(G)p.r(U)p.r(U)p.r(C)p.r(U)p.r(G)p.r(G)p.r(A)p.r(T)p.r(T)}$$$RNA1{StrandType:ss}|RNA2{StrandType:as}$,50%
17,RNA1{[fl2r](C)p.[fl2r](U)p.r(A)p.[fl2r](G)p.r(A)p.r(G)p.[fl2r](G)p.r(A)p.[fl2r](U)p.[fl2r](C)p.[fl2r](U)p.[fl2r](U)p.r(G)p.r(A)p.[fl2r](A)p.r(G)p.r(A)p.[fl2r](C)p.[fl2r](C)p.r(T)p.r(T)}|RNA2{r(G)p.r(G)p.[fl2r](U)p.[fl2r](C)p.[fl2r](U)p.[fl2r](U)p.[fl2r](C)p.r(A)p.r(A)p.r(G)p.r(A)p.[fl2r](U)p.[fl2r](C)p.[fl2r](C)p.[fl2r](U)p.[fl2r](C)p.[fl2r](U)p.r(A)p.r(G)p.r(T)p.r(T)}$$$RNA1{StrandType:ss}|RNA2{StrandType:as}$,12%
18,RNA1{m(A)p.m(A)p.m(G)p.r(G)p.r(A)p.r(G)p.r(A)p.r(U)p.r(C)p.r(A)p.r(A)p.r(C)p.r(A)p.r(U)p.r(U)p.r(U)p.m(U)p.m(C)p.m(A)p.r(T)p.r(T)}|RNA2{m(U)p.m(G)p.m(A)p.r(A)p.r(A)p.r(A)p.r(U)p.r(G)p.r(U)p.r(U)p.r(G)p.r(A)p.r(U)p.r(C)p.r(U)p.r(C)p.m(C)p.m(U)p.m(U)p.r(T)p.r(T)}$$$RNA1{StrandType:ss}|RNA2{StrandType:as}$,76%
19,RNA1{r(A)p.r(A)p.r(G)p.r(G)p.r(A)p.r(G)p.r(A)p.m(U)p.m(C)p.r(A)p.r(A)p.m(C)p.r(A)p.m(U)p.m(U)p.m(U)p.m(U)p.m(C)p.r(A)p.r(T)p.r(T)}|RNA2{m(U)p.r(G)p.r(A)p.r(A)p.r(A)p.r(A)p.m(U)p.r(G)p.r(U)p.r(U)p.r(G)p.r(A)p.m(U)p.m(C)p.m(U)p.m(C)p.m(C)p.m(U)p.m(U)p.r(T)p.r(T)}$$$RNA1{StrandType:ss}|RNA2{StrandType:as}$,53% and 74%
20,RNA1{r(G)p.r(C)p.r(A)p.r(G)p.r(C)p.r(A)p.r(C)p.r(G)p.r(A)p.r(C)p.r(U)p.r(U)p.r(C)p.r(U)p.r(U)p.r(C)p.r(A)p.r(A)p.r(G)p.r(T)p.r(T)}|RNA2{d(C)p.d(U)p.d(U)p.d(G)p.d(A)p.d(A)p.d(G)p.d(A)p.d(A)p.d(G)p.d(U)p.d(C)p.d(G)p.d(U)p.d(G)p.d(C)p.d(U)p.d(G)p.d(C)p.r(T)p.r(T)}$$$RNA1{StrandType:ss}|RNA2{StrandType:as}$,0%
